# In patent publication US20190070165A1, “N-HYDROXYISOQUINOLINEDIONE INHIBITORS OF HBV REPLICATION” (Saint Louis University, priority 2016, published 2019):
# Entries after “also recorded” stand apart in the source; their conditions may differ.
# Key:
# HBV RNaseH = HBV RNaseH (Hepatitis B virus genotype D subtype ayw, UniProt P03156); details: Table 3, compounds at 100, 60 and 20 μM; compounds 1-91 and 138-140 previously reported (Cai et al., 2014)
# Method: RNaseH expression and purification. […] The enriched extracts were dialyzed into 50 mM HEPES pH 7.3, 300 mM NaCl, 20% glycerol, and 5 mM DTT and stored in liquid nitrogen.
# Oligonucleotide-directed RNA cleavage assay. […] This mixture was incubated with test compounds in 50 mM Tris pH 8.0, 190 mM NaCl, 5 mM MgCl2, 3.5 mM DTT, 0.05% NP40, 6% glycerol, and 1% DMSO at 42° C. for 90 minutes. Cleavage products were resolved by denaturing polyacrylamide gel electrophoresis, detected by autoradiography, and quantified using ImageJ. Non-specific background values were determined from the incorrect oligonucleotide negative control lane and subtracted from all experimental values. IC50 values were then calculated with GraphPad Prism using three-parameter log(inhibitor) vs. response non-linear curve fitting with the curve minimum set to zero to reflect background subtraction.
# The HBV RNaseH inhibition activity of the 16 previously untested compounds was examined using an oligonucleotide-directed cleavage assay. Compounds were incubated with the HBV RNaseH, a ^32P-labeled RNA substrate plus a complementary DNA oligonucleotide and compounds at 100, 60, and 20 μM and the amount of the RNA cleavage products was measured following resolution on an acrylamide gel.
# Briefly, a ^32P-labeled RNA was combined with a DNA oligonucleotide and the RNA:DNA substrate was incubated in the presence of the RNaseH and test compounds in 50 mM tris pH 8.0, 190 mM NaCl, 5 mM MgCl2, 3.5 mM DTT, 0.05% NP40, 6% glycerol, and 1% DMSO at 42° C. for 90 minutes. The products were resolved by gel electrophoresis and detected by audioradioagraphy.
# HBV replication = HBV replication inhibition assay in HepDES19 cells (strand-preferential q-PCR); type: cell-based, Hepatitis B virus
# HBV polymerase = molecular target: T1, HBV polymerase (Hepatitis B virus genotype D subtype ayw, UniProt P03156); assay: Endogenous polymerase reaction (EPR) in isolated HBV capsids; type: biochemical; details: inhibitors at 4× EC50; #138 and #211 at 30 μM; ddTTP 5.7 μM
# T1 construct: expressed in transfected cells; host or cells: HepDES19 (HepG2 with a stably transfected HBV genotype D genome)
# From the text: Anti-RNaseH activity is implied from their preferential suppression of the plus-polarity DNA strand (FIG. 4), but strand-preferential inhibition could also result from inhibiting the polymerase also. This is because positive-polarity DNA synthesis can be suppressed both directly by inhibiting the RNaseH enzyme and indirectly by reducing the amount of negative-polarity DNA strand that templates the positive-polarity strand, whereas minus-polarity DNA synthesis can only be suppressed by chain termination. To determine if the efficacy of these compounds was due to inhibition of the HBV polymerase, capsids isolated from HepDES19 cells were tested in the endogenous polymerase reaction (EPR) to measure DNA chain elongation by the HBV polymerase along the HBV nucleic acids within the capsids. Isolated HBV capsids were supplied with dATP, dTTP, dGTP, and [α^32P]dCTP in the presence of inhibitors at 4× their EC50 values; negative control compounds #138 and #211 were tested at 30 μM. 1% DMSO was used as a vehicle control, and ddTTP (5.7 μM) was the positive control polymerase inhibitor. Samples were incubated at 37° C. for 7 hours to permit DNA chain elongation by the encapsidated HBV polymerase. Nucleic acids were purified, resolved on a 0.8% agarose gel and detected by autoradiography. DNAs from HBV capsids treated with the compounds incorporated ^32P similarly to DMSO control (FIG. 5).
# HBV cores were harvested from HepDES19 cells grown in the absence of tetracycline for 20 days using polyethylene glycol 8000 precipitation (Guo et al., 2003). Cells were rinsed in PBS and lysed in 1 mL core lysis buffer with 2 μL of protease inhibitor cocktail (Sigma) at room temperature for 10 minutes. Cell lysates were collected and 10 mM CaCl2) was added. The lysate was centrifuged for 5 minutes at 21,000 g, the supernatant was incubated with 150 U of micrococcal nuclease at 37° C. for 60 minutes, and then 27 mM EDTA was added to stop the reaction. 333 μL of 26% PEG8000 was added to precipitate core particles and incubated at 4° C. for 6 hours. The samples were centrifuged at 21,000 g for 20 minutes at 4° C. The supernatant was removed and the pellet was resuspended in 250 μL of 10 mM Tris buffer pH 7.5. Cores were stored at −80° C.
# The endogenous polymerase reaction was done using a modified procedure from (Nguyen et al., 2007). […] These nucleic acids were dissolved in tris-EDTA buffer, resolved on a 0.8% agarose gel, transferred to a HyBondN membrane, and detected by autoradiography. Band intensities for each experiment were quantified using Image J and percent inhibition was calculated relative to the DMSO-treated reactions. Statistical significance of variation in band intensities was evaluated using a one-way ANOVA with a Dunnett post hoc analysis, with p=0.05 indicating significance.
# HSV-1 = HSV-1 replication inhibition assay in Vero cells; type: cell-based, herpes simplex virus 1; details: Human alphaherpesvirus 1, 24 h; 5 μM, Vero cells; read-out: HSV-1 suppression (log10 at 5 μM), class symbol
# Sequence of HBV RNaseH (P03156 671-832): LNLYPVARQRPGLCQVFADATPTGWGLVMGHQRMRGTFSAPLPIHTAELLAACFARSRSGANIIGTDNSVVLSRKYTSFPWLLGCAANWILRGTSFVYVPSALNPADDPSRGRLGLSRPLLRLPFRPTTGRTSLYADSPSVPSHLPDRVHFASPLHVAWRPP
# T1 sequence (P03156 whole entry): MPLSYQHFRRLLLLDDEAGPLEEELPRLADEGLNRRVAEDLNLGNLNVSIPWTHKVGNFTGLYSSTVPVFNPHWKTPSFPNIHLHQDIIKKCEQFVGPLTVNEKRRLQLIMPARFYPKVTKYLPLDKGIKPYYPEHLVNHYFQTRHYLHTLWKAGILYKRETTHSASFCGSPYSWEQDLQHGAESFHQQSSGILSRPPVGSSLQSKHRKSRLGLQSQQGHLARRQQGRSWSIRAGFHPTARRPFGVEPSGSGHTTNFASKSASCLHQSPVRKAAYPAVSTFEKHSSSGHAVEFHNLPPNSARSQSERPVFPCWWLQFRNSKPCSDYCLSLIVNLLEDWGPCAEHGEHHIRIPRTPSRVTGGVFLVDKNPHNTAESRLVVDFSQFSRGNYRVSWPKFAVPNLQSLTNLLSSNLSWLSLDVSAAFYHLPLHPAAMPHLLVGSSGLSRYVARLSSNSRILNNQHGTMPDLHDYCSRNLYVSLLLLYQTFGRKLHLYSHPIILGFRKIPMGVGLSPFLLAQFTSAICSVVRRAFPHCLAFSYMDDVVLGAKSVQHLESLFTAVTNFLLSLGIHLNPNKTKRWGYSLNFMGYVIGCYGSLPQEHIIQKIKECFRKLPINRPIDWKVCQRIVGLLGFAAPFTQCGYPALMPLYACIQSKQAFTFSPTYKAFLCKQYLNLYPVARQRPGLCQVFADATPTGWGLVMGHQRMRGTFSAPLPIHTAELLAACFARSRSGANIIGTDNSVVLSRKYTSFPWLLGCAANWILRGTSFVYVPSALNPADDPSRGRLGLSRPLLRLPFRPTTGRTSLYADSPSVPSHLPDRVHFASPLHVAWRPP
structure (smiles),measurement,setting,value
O=C1c2ccccc2C(=O)N1O [Compound 138],"Inhibition of HBV RNaseH, Oligonucleotide directed cleavage assay",HBV RNaseH,− (No inhibition detected at 100 μM)
same,HBV replication inhibition / activity,HBV replication; HepDES19 cells,does not inhibit HBV replication; also recorded: inactive
same,HBV replication inhibition (qualitative),"HBV replication; Table 3, qualitative screen at 20 μM",− (No inhibition detected at 20 μM)
same,effect on 32P incorporation in EPR,HBV polymerase,None of the HBV inhibitors or the two negative control compounds (#138 and 211) significantly altered incorporation
same,log reduction at 5 µM,HSV-1,< 1
